Test results: patent publication US12221494B2, “Short synthetic peptides and their uses for treating retinal degenerative diseases and/or tissue injuries” (MacKay Memorial Hospital, priority 2019, dated 2025)
Ends that are not written are not given here.

Experiments:
survivin mRNA = assay: Real-time qPCR of survivin mRNA in C2C12 cells; format: cell-based, mouse; details: C2C12 cells in low serum media, 20 μM peptide, 6 h
Experimental: (§1) Total RNA was extracted from cells using TRIzol (Invitrogen). Synthesis of cDNA was performed with 1 μg of total RNA at 50° C. for 50 min using oligo(dT) primers and reverse transcriptase (Superscript III; Invitrogen). Briefly, quantification of cDNA was performed in the LightCycler (Roche, Mannheim, Germany) using the DNA Master SYBR Green I kit (Roche) with the following cycling conditions: initial denaturation at 95° C. for 10 min, followed by 40 cycles at 95° C. for 10 s, 60° C. for 10 s, and 72° C. for 10 s and a 5-min terminal incubation at 72° C. The data were calculated with AACt. The expression was then normalized against the expression of glyceraldehyde-3-phosphate dehydrogenase (GAPDH). The PCR primers were mouse Survivin sense, 5′-[…]-3′ (SEQ ID NO: 27), anti-sense, 5′-[…]-3′ (SEQ ID NO: 28) (accession number: NM_001012273.1; PCR product: 136 bp); mouse GAPDH sense, 5′-[…]-3′ (SEQ ID NO: 29), anti-sense, 5′-[…]-3′ (SEQ ID NO: 30) (NM_001289726.1; 149 bp). For analysis rabbit inflammatory gene expression, The PCR primers were rabbit TNF-αsense, 5′-[…]-3′ (SEQ ID NO: 31), anti-sense, 5′-[…]-3′ (SEQ ID NO: 32) (accession number: NM 001082263.1); rabbit IL-1βsense, 5′-[…]-3′(SEQ ID NO: 33), anti-sense, 5′-[…]-3′ (SEQ ID NO: 34) (NM 001082201.1); rabbit GAPDH sense, 5′-[…]-3′ (SEQ ID NO: 35), anti-sense, 5′-[…]-3′ (SEQ ID NO: 36) (accession number:NM 001082253.1). The cycle threshold (Ct) values of the PCR product and a GAPDH (Glyceraldehyde 3-phosphate dehydrogenase) control mRNA were used to calculate relative quantities of mRNA.
Similar to the approach in Example 1.2.1, the expression level of survivin mRNA in C2C12 cells was used as an indicator for the function of the 6-mer variants in Tables 3 to 5. Briefly, C2C12 cells in low serum media were treated with 20 μM the 6-mer variants for 6 h. […] The results also confirmed that alanine substation at the glutamic acid (E) residues would severely impair the 6-mer activity.

[1] = tested on: Sprague-Dawley rats, retinal ischemia/reperfusion (I/R) injury; assay: TUNEL staining of I/R-injured rat retina (20 h); format: in vivo; details: for Number of TUNEL-positive cells in retina: subconjunctival injection 1 mM 4 h before I/R, 20 hours after I/R injury, Vehicle + I/R 27.2 ± 2.7; for I/R-induced retinal cell apoptosis (TUNEL staining), in words: subconjunctival injection prior to I/R, 20 h reperfusion
Experimental: Experimental procedures were approved by the Mackay Memorial Hospital Review Board (Taiwan, R.O.C.). All surgeries were performed under aseptic conditions. Adult 10-week-old male Sprague-Dawley rats (initial body weight=312±11 g) were anesthetized by an intraperitoneal injection of xylazine (10 mg/kg). Peptide was dissolved in 0.85% normal saline to 1 mM and delivered by the subconjunctival injection of 100 μL peptide through a 31-Gneedle with a micro-syringe before the induction of I/R. Normal saline was as a vehicle control. Rat I/R was performed after peptide or vehicle injection for 4 h. Pupils were dilated with 0.5% tropicamide and 0.5% phenylephrine. Body temperature was maintained at 37° C. using a heating blanket After dilation of the pupil, the anterior chamber of the right eye was cannulated with a 27-gauge needle connected to a physiological saline reservoir. The intraocular pressure (IOP) was raised to 110 mmHg by keeping the reservoir at 150 cm above the eye, and retinal ischemia was confirmed by observing whitening of the iris and the loss of the red reflex of the retina. After 90 min of ischemia, the cannulating needle was withdrawn and the IOP was returned to normal pressure, resulting in recovery of the blood supply from the retinal artery and reperfusion injury induced. The reperfusion was evident by the return of the red reflex. Corneal analgesia was achieved using 1 or 2 drops of 0.4% oxybuprocaine hydrochloride, and Ofloxacin ophthalmic gel (0.3%) was applied topically to the eye before and after the procedure. Only the right eye was used in all experiments. A sham procedure was performed at left eye served as an intra-animal control.
After I/R for 20 h, rats (n=6 in each group) were euthanized by an overdose of pentobarbital. Enucleated eyeballs were fixed in 4% PFA for 24 h at 4° C. Fixed retinal tissues were embedded in paraffin. To identify apoptosis of retinal cells, 5 μm sections thick cut through the optic disc, de-paraffinized, rehydrated, incubatedwith 20 μg/mL proteinase K for 10 min, and immunofluorescence staining of apoptotic cells was performed using a terminal deoxynucleotidyl transferase(TdT)-mediated dUTP nick-end labeling (TUNEL)-based kit (Roche Molecular Biochemicals, Indianapolis, IN) according to the manufacturer's instructions. Nuclei were located by counterstaining with Hoechst 33258 for 7 min Sections were observed under an epifluorescence microscope (Zeiss Axioplan 2 imaging; Zeiss, Oberkochen, Germany) equipped with a charge-coupled device (CCD) camera (Zeiss AxioCam HRm, Zeiss) (×400, 6 fields/sample), and quantification was performed using Axiovert software (Zeiss AxioVision Release 4.8.2, Zeiss). Three sections per eye were averaged and the mean of six eyes was recorded as the representative value for each group.
In this example, the neuroprotective effect of the 6-mer variant peptides on neural retina cells and retinal capillary system was investigated using a rat model of I/R injury described in the “Material and Methods” section. Briefly, 6-mer variant peptide (1 mM, 120 μl) was injected into the subconjunctival space of Sprague-Dawley rats for 4 h before the induction of I/R. Then, I/R injury was induced in rat retinas by increasing the intraocular pressure (IOP) in the eye to 110 mmHg for 90 min, followed by 20 h of reperfusion. Subsequently, the level of retinal cell apoptosis was evaluated using TUNEL staining. In addition, the retinal morphology was analyzed with H&E staining 14 days after the I/R injury. Results are summarized in FIGS. 6 to 10, and Tables 6 to 9.

[2] = tested on: C57BL/6 mice, dry eye induced in controlled environment chamber (CEC); assay: Dry eye animal model, corneal fluorescein staining; format: in vivo, mouse; details: mice 14 days in CEC, then treatment for 4 days
Experimental: Dry eyes were induced by placing mice in a controlled environment chamber (CEC) for 14 days in accordance with procedures previously described by Barabino et al (IVOS (2005) 46(8), 2766-2771). Mice placed in the CEC were exposed to a condition, in which relative humidity (RH) was maintained at <25%, temperature at 20-22° C., and airflow at about 15 L/min, for 12 hours per day. Control mice were kept in a normal environment (RH>50%, no air flow, temperature of 20-22° C.) for the same duration.
A common artificial tear formulation, 1% carboxymethylcelllulose (CMC) dissolved in balanced salt solution (BSS) was used as the peptide vehicle. Peptide (100 μM, about 0.7 μg peptide in 10 μl eye drop used for treating one eye) or 1% CMC vehicle was topically administered to eyes three times a day. To test whether the present synthetic peptide could exert any therapeutic action on dry eyes, mice were housed at CEC for 14 days without topical treatment, and then were treated with the present peptide for 4 days.
Animals were anesthetized by an intraperitoneal injection of a mixture of zoletil (6 mg/kg) and xylazine (3 mg/kg). Corneal epithelial injury was determined by staining with topical fluorescein (Fluor-I-Strip, Ayerst Laboratories, Philadelphia, PA). Corneal fluorescein staining was examined with a slit-lamp biomicroscope under cobalt blue light and photographed with a digital camera. Dye staining of the cornea was scored in a blinded manner as follows: score 0 for no punctuate staining; score 1 when less than one third of the cornea was stained; score 2 when two thirds or less was stained; and score 3 when more than two thirds was stained (Horwath-Winter J 2013).
Briefly, mice were housed at controlled environment chamber (CEC) for 14 days (set as Day 0) to induce corneal surface disruption. Corneal fluorescein staining was used to estimate the corneal surface injury and the animal with a staining score of 2 (after mice placed at CEC for 14 days) was subjected to peptide treatment. The 6-mer variant peptide formulation for the treatment of DED was described in Methods. […]

TNF-α mRNA = assay: Hyperosmotic stress-induced TNF-α gene expression in rabbit corneal epithelial cells (qPCR); format: cell-based; details: 20 μM peptide 6 h, then hyperosmotic medium (463 mOsM) 3 h, solvent 12.8-fold
Experimental: as §1
(§2) Limbal stem epithelial cells (LSEC) were isolated from 6-month-old New Zealand white rabbits and continuously cultivated for 14 days byDMEM/F-12basalmedium based cell-suspension culture to achieve corneal-liked epithelial cell differentiation as previously described (Ho et al., Stem Cells. 2013; 31:1775). […] After 3 h, quantitative real-time PCR was used to estimate HOP-induced Tumor necrosis factor (TNF)-α and nterleukin-1 beta (IL-1β) expressions. […]

IL-1β mRNA = assay: Hyperosmotic stress-induced IL-1β gene expression in rabbit corneal epithelial cells (qPCR); format: cell-based; details: 20 μM peptide 6 h, then hyperosmotic medium (463 mOsM) 3 h, solvent 4.5-fold
Experimental: as §1, §2

Substance	survivin mRNA induction, in words (survivin mRNA)	Number of TUNEL-positive cells in retina [1]	I/R-induced retinal cell apoptosis (TUNEL staining), in words [1]	therapeutic effect on corneal fluorescein staining, in words [2]	survivin mRNA induction compared to solvent control (survivin mRNA)	mRNA expression of TNF-α, in words (TNF-α mRNA)	mRNA expression of IL-1β, in words (IL-1β mRNA)
NH2-The-Leu-Gly-Ala-Glu-Gln-COOH (TLGAEQ; not fully specified (N-terminus, C-terminus); printed as NH2-The-Leu-Gly-Ala-Glu-Gln-COOH) [6-mer St]	severely impaired the survivin mRNA induction	21.8 ± 1.8 /200 μm	had no such effect	had no therapeutic effect			
NH2-Ser-Leu-Gly-(D-Ala)-Glu-Gln-COOH (SLGAEQ; HELM PEPTIDE1{S.L.G.[dA].E.Q}$$$$V2.0; SMILES CC(C)C[C@H](NC(=O)[C@@H](N)CO)C(=O)NCC(=O)N[C@H](C)C(=O)N[C@@H](CCC(=O)O)C(=O)N[C@@H](CCC(N)=O)C(=O)O) [6-mer dA]	hamper the survivin gene induction activity significantly			had no therapeutic effect			
NH2-Ser-Leu-Val-Ala-Glu-Gln-COOH (SLVAEQ; not fully specified (N-terminus, C-terminus); printed as NH2-Ser-Leu-Val-Ala-Glu-Gln-COOH) [6-mer Gv]		10.4 ± 1.4 /200 μm	reduced the retinal cell apoptosis induced by I/R		2.3 fold	apparently repressed the mRNA expression of TNF-α and IL-1β	apparently repressed the mRNA expression of TNF-α and IL-1β
NH2-Ala-Leu-Gly-Ala-Glu-Gln-COOH (ALGAEQ; not fully specified (N-terminus, C-terminus); printed as NH2-Ala-Leu-Gly-Ala-Glu-Gln-COOH) [6-mer Sa]		12.6 ± 1.1 /200 μm	reduced the retinal cell apoptosis induced by I/R		1.7 fold	apparently repressed the mRNA expression of TNF-α and IL-1β	apparently repressed the mRNA expression of TNF-α and IL-1β
